pIC50: −log10 of the molar value. Active and inactive are the calls of the source.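 How the source made its calls: active means IC50 at or below 20 µM; inactive means the rest.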
Target: Fatty acid synthase (Homo sapiens) (UniProt P49327)
Test: FAS thioesterase domain inhibitors, SAR follow-up, biochemical, kinetic fluorescence intensity, dose response (AID 652165)
Details: recombinant FAS-TE, OMFH fluorogenic substrate

Sequence of Fatty acid synthase (Homo sapiens) (P49327 whole entry, looked up, the tested form may be a part): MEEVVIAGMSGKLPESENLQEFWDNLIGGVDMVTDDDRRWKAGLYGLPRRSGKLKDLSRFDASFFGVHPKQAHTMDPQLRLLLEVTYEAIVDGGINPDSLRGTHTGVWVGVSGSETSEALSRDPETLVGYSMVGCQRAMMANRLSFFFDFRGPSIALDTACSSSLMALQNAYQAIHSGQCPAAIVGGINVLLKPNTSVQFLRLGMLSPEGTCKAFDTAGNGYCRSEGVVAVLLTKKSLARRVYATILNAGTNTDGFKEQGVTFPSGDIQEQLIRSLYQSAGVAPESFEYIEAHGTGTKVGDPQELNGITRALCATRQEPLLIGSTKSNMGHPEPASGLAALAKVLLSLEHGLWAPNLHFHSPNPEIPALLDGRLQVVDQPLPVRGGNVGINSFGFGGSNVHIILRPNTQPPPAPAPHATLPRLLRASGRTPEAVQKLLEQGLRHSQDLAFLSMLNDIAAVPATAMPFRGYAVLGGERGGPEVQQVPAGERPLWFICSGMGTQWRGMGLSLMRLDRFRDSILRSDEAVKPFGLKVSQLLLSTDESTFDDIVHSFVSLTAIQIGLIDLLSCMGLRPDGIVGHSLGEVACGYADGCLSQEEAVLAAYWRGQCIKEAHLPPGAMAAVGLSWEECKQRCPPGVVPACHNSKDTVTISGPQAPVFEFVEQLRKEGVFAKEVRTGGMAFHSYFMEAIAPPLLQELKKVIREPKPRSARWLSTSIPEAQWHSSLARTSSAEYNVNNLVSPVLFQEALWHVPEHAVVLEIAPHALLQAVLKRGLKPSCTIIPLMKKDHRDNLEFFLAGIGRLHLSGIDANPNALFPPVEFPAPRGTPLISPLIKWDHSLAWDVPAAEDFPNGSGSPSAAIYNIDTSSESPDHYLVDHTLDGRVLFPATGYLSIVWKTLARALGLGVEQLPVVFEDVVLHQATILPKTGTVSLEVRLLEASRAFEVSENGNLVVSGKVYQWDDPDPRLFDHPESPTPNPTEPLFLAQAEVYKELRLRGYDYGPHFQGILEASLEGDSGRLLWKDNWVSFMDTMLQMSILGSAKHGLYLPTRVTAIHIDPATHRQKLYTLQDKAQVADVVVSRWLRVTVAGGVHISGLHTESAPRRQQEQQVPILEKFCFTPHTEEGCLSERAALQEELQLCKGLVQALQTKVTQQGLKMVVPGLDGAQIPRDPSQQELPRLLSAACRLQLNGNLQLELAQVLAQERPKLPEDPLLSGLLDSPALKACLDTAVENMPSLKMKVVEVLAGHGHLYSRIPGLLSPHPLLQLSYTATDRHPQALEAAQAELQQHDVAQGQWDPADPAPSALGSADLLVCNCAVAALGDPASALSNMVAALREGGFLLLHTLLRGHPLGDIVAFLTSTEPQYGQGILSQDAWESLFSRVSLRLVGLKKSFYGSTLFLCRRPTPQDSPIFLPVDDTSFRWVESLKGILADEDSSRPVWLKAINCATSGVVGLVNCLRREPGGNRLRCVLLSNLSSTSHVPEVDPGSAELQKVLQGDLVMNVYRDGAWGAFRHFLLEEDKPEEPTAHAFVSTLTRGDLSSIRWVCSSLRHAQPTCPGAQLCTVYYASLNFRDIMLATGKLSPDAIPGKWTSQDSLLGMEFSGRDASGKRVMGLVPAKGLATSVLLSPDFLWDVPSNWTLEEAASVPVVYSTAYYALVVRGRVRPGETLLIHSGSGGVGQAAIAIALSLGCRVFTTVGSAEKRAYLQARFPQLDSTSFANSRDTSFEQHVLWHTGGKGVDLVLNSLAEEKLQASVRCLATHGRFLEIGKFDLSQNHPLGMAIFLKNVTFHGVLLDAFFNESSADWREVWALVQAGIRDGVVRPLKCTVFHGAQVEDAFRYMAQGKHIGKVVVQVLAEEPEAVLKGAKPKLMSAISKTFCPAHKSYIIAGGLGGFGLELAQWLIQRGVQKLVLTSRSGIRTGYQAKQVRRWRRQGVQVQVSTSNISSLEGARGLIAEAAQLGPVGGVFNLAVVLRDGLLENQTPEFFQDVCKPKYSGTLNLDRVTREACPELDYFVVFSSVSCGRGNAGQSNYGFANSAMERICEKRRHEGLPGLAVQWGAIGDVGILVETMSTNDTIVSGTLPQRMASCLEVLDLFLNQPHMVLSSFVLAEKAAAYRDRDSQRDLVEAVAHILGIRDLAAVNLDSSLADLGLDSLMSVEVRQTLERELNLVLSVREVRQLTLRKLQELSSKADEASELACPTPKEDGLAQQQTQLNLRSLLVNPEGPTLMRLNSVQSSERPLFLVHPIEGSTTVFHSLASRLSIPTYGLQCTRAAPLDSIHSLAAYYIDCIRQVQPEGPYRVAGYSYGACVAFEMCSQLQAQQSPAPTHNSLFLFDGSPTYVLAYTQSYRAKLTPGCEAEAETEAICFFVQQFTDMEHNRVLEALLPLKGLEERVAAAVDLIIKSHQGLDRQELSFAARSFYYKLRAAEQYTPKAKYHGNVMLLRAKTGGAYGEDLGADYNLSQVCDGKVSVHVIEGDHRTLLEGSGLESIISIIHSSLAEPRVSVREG

| pIC50 | IC50 | Compound |
| --- | --- | --- |
| 5.29 |  | O=C(Nc1nc(-c2ccc(S(=O)(=O)N3CCOCC3)cc2)cs1)C1CC1 |
| 6.12 |  | O=C(Nc1nc(-c2ccc(S(=O)(=O)N3CCCC3)cc2)cs1)C1CCCC1 |
|  | inactive | CCCCC(=O)Nc1nc(-c2ccc(C(=O)N3CCOCC3)cc2)cs1 |
|  | inactive | CC(C)(C)OC(=O)Nc1nc(-c2ccc(S(=O)(=O)N3CCOCC3)cc2)cs1 |
| 6.53 |  | CC(C)C(=O)Nc1nc(-c2ccc(S(=O)(=O)N3CCCC3)cc2)cs1 |
| 6.53 |  | CCC(C)C(=O)Nc1nc(-c2ccc(S(=O)(=O)N(CC)CC)cc2)cs1 (centres undefined) |
| 5.96 |  | CCC(=O)Nc1nc(-c2ccc(S(=O)(=O)N(C)C)cc2)cs1 |
| 6.46 |  | O=C(Nc1nc(-c2ccc(S(=O)(=O)N3CCCC3)cc2)cs1)C1CCC1 |
|  | > 80000 nM (inactive) | O=C(Nc1nc(-c2ccc(S(=O)(=O)N3CCOCC3)cc2)cs1)C1CCCCC1 |
| 5.50 |  | CCN(CC)S(=O)(=O)c1ccc(-c2csc(NC(=O)C3CCCCC3)n2)cc1 |
| 5.46 |  | O=C(Nc1nc(-c2ccc(S(=O)(=O)N3CCOCC3)cc2)cs1)C1CCC1 |
| 5.40 |  | CCC(=O)Nc1nc(-c2ccc(S(=O)(=O)N(CC)CC)cc2)cs1 |
| 6.27 |  | CCCCC(=O)Nc1nc(-c2ccc(S(=O)(=O)N3CCC(C)CC3)cc2)cs1 |
| 6.02 |  | CCN(CC)S(=O)(=O)c1ccc(-c2csc(NC(=O)C3CCC3)n2)cc1 |
| 6.06 |  | CC(C)C(=O)Nc1nc(-c2ccc(S(=O)(=O)N3CCOCC3)cc2)cs1 |
| 6.77 |  | CCCCC(=O)Nc1nc(-c2ccc(S(=O)(=O)N(CC)CC)cc2)cs1 |
| 6.19 |  | CCCCC(=O)Nc1nc(-c2ccc(S(=O)(=O)N3CCSCC3)cc2)cs1 |
| 6.54 |  | CCC(C)C(=O)Nc1nc(-c2ccc(S(=O)(=O)N3CCOCC3)cc2)cs1 (centres undefined) |
| 6.50 |  | CCN(CC)S(=O)(=O)c1ccc(-c2csc(NC(=O)C(C)C)n2)cc1 |
| 6.25 |  | CC(C)C(=O)Nc1nc(-c2ccc(S(=O)(=O)N(C)C)cc2)cs1 |

| pIC50 | IC50 | Compound |
| --- | --- | --- |
| 5.87 |  | CN(C)S(=O)(=O)c1ccc(-c2csc(NC(=O)C3CCC3)n2)cc1 |
| 5.18 |  | CC(C)CC(=O)Nc1nc(-c2ccc(S(=O)(=O)N3CCOCC3)cc2)cs1 |
| 5.93 |  | CCN(CC)S(=O)(=O)c1ccc(-c2csc(NC(=O)C3CCCC3)n2)cc1 |
| 4.92 |  | CC(=O)Nc1nc(-c2ccc(S(=O)(=O)N3CCOCC3)cc2)cs1 |
| 4.74 |  | CCCCC(=O)Nc1nc(-c2cccc(S(=O)(=O)N3CCOCC3)c2)cs1 |
|  | > 80000 nM (inactive) | O=C(Nc1nc(-c2ccc(S(=O)(=O)N3CCOCC3)cc2)cs1)C1CCCC1 |
| 5.38 |  | CCC(=O)Nc1nc(-c2ccc(S(=O)(=O)N3CCOCC3)cc2)cs1 |
| 6.18 |  | O=C(Nc1nc(-c2ccc(S(=O)(=O)N3CCCC3)cc2)cs1)C1CC1 |
| 5.61 |  | CCN(CC)S(=O)(=O)c1ccc(-c2csc(NC(=O)C3CC3)n2)cc1 |
| 6.51 |  | CCC(CC)C(=O)Nc1nc(-c2ccc(S(=O)(=O)N3CCOCC3)cc2)cs1 |
| 6.26 |  | CCCCC(=O)Nc1nc(-c2ccc(S(=O)(=O)N3CCOCC3)cc2)cs1 |
|  | > 80000 nM (inactive) | CCC(=O)Nc1nc(-c2ccc(S(=O)(=O)N3CCC(C)CC3)cc2)cs1 |
| 6.71 |  | CCCCC(=O)Nc1nc(-c2ccc(S(=O)(=O)N3CCCC3)cc2)cs1 |
| 5.89 |  | CN(C)S(=O)(=O)c1ccc(-c2csc(NC(=O)C3CC3)n2)cc1 |
| 5.82 |  | CN(C)S(=O)(=O)c1ccc(-c2csc(NC(=O)C3CCCC3)n2)cc1 |
| 6.19 |  | CCC(=O)Nc1nc(-c2ccc(S(=O)(=O)N3CCCC3)cc2)cs1 |
|  | > 80000 nM (inactive) | CC1CCN(S(=O)(=O)c2ccc(-c3csc(NC(=O)C4CC4)n3)cc2)CC1 |
|  | > 80000 nM (inactive) | CC(=O)Nc1nc(-c2ccc(S(=O)(=O)N3CCSCC3)cc2)cs1 |
| 6.19 |  | CC1CCN(S(=O)(=O)c2ccc(-c3csc(NC(=O)C(C)C)n3)cc2)CC1 |
